The results in this text go back to patent publication US20230337674A1, “FUNGICIDAL COMPOSITIONS” (SYNGENTA CROP PROTECTION AG, priority 2020, published 2023).

Where “and” joins values, the source holds several entries; their conditions need not be identical. Equal values may be shown once. Read-outs that look alike come from different tables or passages of the source.

The test system of one experiment is Septoria tritici. Kind of experiment: Septoria tritici growth inhibition in nutrient broth (microtiter plate). The format is cell-based. The following applies: Zymoseptoria tritici, read-out: Observed Activity (%). The protocol:
Septoria tritici (Leaf Blotch):
Conidia of the fungus from cryogenic storage were directly mixed into nutrient broth (PDB potato dextrose broth). A DMSO solution of the test compounds was placed into a microtiter plate (96-well format) and the nutrient broth containing the fungal spores was added to it. The test plates were incubated at 24° C. and the inhibition of growth was determined photometrically after 72 hrs.

The test system of a further experiment is Phakopsora pachyrhizi. Kind of experiment: Phakopsora pachyrhizi on leaf disks from treated whole soybean plants. The class given is in vivo. The following applies: evaluation 11 to 14 days after inoculation; for inhibition at 0.25 g/ha / inhibition at 0.5 g/ha / inhibition at 1 g/ha / inhibition at 2 g/ha: Phakopsora pachyrhizi, foliar. The method, then:
Phakopsora pachyrhizi (Soybean Rust):
Whole soybean plants are treated with the recited active ingredients 4 weeks after planting. 1 day after spraying leaf disks are cut from the first trifoliate leaf. Five repetitions at each rate are conducted. The leaf disks are inoculated with Phakopsora pachyrhizi (Asian soybean rust) one day after treatment. Evaluation of the leaf disks is conducted 11 to 14 days after inoculation and the activity is derived from the relation of the treated vs untreated, infested check. The rates of the active ingredients used are given in Table as g active ingredient (a.i.)/ha.

In the next experiment the test system is Corynespora cassiicola. Kind of experiment: Corynespora cassiicola growth inhibition in nutrient broth (microtiter plate). Particulars: read-out: Observed Activity (%). The class given is cell-based. The method, then:
Corynespora cassiicola (Target Spot of Soybean, Target Leaf Spot of Tomato):
Conidia of the fungus from cryogenic storage were directly mixed into nutrient broth (PDB potato dextrose broth). A DMSO solution of the test compounds was placed into a microtiter plate (96-well format) and the nutrient broth containing the fungal spores was added to it. The test plates were incubated at 24° C. and the inhibition of growth was determined photometrically after 3-4 days at 620 nm.

Where [1] appears, read: single active, 0.5 g/ha, read-out: Observed Activity (%).
Setting [2] is: single active, read-out: Observed Activity (%).

Turning to `CNC(=O)C(F)(F)c1ccc(-c2noc(C(F)(F)F)n2)cc1` [Compound A-1.1, 2,2-difluoro-N-methyl-2-[4-[5-(trifluoromethyl)-1,2,4-oxadiazol-3-yl]phenyl]acetamide], the inhibition at 5 ppm in the experiment with Septoria tritici (single active, 72 hrs, 24° C.) worked out at 20%. Also, the inhibition at 10 ppm in the experiment with Septoria tritici (single active, 10 ppm, 72 hrs, 24° C.) was 20%. Besides, the inhibition at 20 ppm in the experiment on Septoria tritici (single active, 20 ppm, 72 hrs, 24° C.) came out at 50%. For the same compound, the inhibition at 0.25 g/ha in the experiment on Phakopsora pachyrhizi (single active, 0.25 g/ha, read-out: Observed Activity (%)) came to 0%. The inhibition at 0.5 g/ha in the experiment with Phakopsora pachyrhizi (setting [1]) is 3%. For the same compound, the inhibition at 1 g/ha with Phakopsora pachyrhizi (setting [2]) was 54%.
For `C[C@@H]1CC(C)(C)c2cccc(NC(=O)c3cn(C)nc3C(F)F)c21` [Inpyrfluxam, 3-(difluoromethyl)-1-methyl-N-[(3R)-1,1,3-trimethylindan-4-yl]pyrazole-4-carboxamide, reference compound], in the experiment on Corynespora cassiicola, the inhibition at 0.01 ppm was determined as 0% and the inhibition at 0.02 ppm is 0%. Further, in the experiment on Septoria tritici (72 h), the inhibition at 0.02 ppm was found to be 0% and the inhibition at 0.04 ppm came to 20%. Moreover, the inhibition at 0.25 g/ha in the experiment on Phakopsora pachyrhizi (read-out: Observed Activity (%), single active, 0.25 g/ha) is 50%. Also, the “Observed Activity (%)” value in the experiment on Phakopsora pachyrhizi (single active, 0.5 g/ha) is 46% and 82%.
Turning to `O=C(Nc1ccccc1F)c1ccc(-c2noc(C(F)(F)F)n2)cc1` [Compound A-1.3, N-(2-fluorophenyl)-4-[5-(trifluoromethyl)-1,2,4-oxadiazol-3-yl]benzamide], in the experiment on Phakopsora pachyrhizi (setting [1]), the inhibition at 0.5 g/ha worked out at 0%. In the experiment with Phakopsora pachyrhizi (setting [2]), the inhibition at 1 g/ha was found to be 29% and the inhibition at 2 g/ha was 78%.
Consider `CNC(=S)c1ccc(-c2noc(C(F)(F)F)n2)cc1` [Compound A-1.2, N-methyl-4-[5-(trifluoromethyl)-1,2,4-oxadiazol-3-yl]benzenecarbothioamide], for which the inhibition at 5 ppm stood at 0% in the experiment with Corynespora cassiicola (single active, 5 ppm, 3-4 days, 24° C.) and 50% with Septoria tritici (single active, 72 hrs, 24° C.). In the experiment on Corynespora cassiicola (single active, 10 ppm, 3-4 days, 24° C.), the inhibition at 10 ppm was found to be 0%. Also, the inhibition at 20 ppm in the experiment on Corynespora cassiicola (single active, 20 ppm, 3-4 days, 24° C.) amounted to 0%. For the same compound, the inhibition at 0.5 g/ha with Phakopsora pachyrhizi (setting [1]) came out at 0%. Further, the inhibition at 1 g/ha with Phakopsora pachyrhizi (setting [2]) came out at 88%. Moreover, the inhibition at 2 g/ha in the experiment with Phakopsora pachyrhizi (setting [2]) turned out to be 95%.
